Results: the kinase profiling compilation of Christmann-Franck et al. (2016)
Values joined by “and” are separate entries in the source; they are usually repeats but may differ in a detail not shown here. Identical values can stand only once.

Columns and labels:
Test in all cases: radiometric filter-binding kinase assay, Kinaseprofiler
[1] = molecular target: CAMK1D (human) (UniProt Q8IU85); conditions: ATP 15 µM
[2] = molecular target: CAMK2B (human) (UniProt Q13554); conditions: ATP 15 µM
[3] = molecular target: CDK5 CDK5R1 p25 (human) (UniProt Q00535+Q15078); conditions: ATP 15 µM
[4] = molecular target: CDK7 CCNH MNAT1 (human) (UniProt P50613+P51948+P51946); conditions: ATP 90 µM
[5] = molecular target: CDK9 CCNT1 (human) (UniProt P50750+O60563); conditions: ATP 45 µM
[6] = molecular target: CHEK1 (human) (UniProt O14757); conditions: ATP 90 µM
[7] = molecular target: CLK3 (human) (UniProt P49761); conditions: ATP 90 µM
[8] = molecular target: CSF1R (human) (UniProt P07333); conditions: ATP 200 µM
[9] = molecular target: CSNK1G2 (human) (UniProt P78368); conditions: ATP 10 µM
[10] = molecular target: DYRK2 (human) (UniProt Q92630); conditions: ATP 15 µM
[11] = molecular target: EPHA1 (human) (UniProt P21709); conditions: ATP 45 µM
[12] = molecular target: EPHA5 (human) (UniProt P54756); conditions: ATP 10 µM
[13] = molecular target: EPHB1 (human) (UniProt P54762); conditions: ATP 200 µM
[14] = molecular target: FGFR3 (human) (UniProt P22607); conditions: ATP 15 µM
[15] = molecular target: FLT3 (human) (UniProt P36888); conditions: ATP 200 µM
[16] = molecular target: FRK (human) (UniProt P42685); conditions: ATP 155 µM
[17] = molecular target: FYN (human) (UniProt P06241); conditions: ATP 70 µM
[18] = molecular target: IRAK1 (human) (UniProt P51617); conditions: ATP 45 µM
[19] = molecular target: MARK2 (human) (UniProt Q7KZI7); conditions: ATP 15 µM
[20] = molecular target: MINK1 (human) (UniProt Q8N4C8); conditions: ATP 185 µM
[21] = molecular target: MTOR FKBP1A (human) (UniProt P42345+P62942); conditions: ATP 45 µM
[22] = molecular target: PIM3 (human) (UniProt Q86V86); conditions: ATP 155 µM
[23] = molecular target: PRKAA1 PRKAB1 PRKAG1 (human) (UniProt P54619+Q13131+Q9Y478); conditions: ATP 45 µM
[24] = molecular target: PRKCE (human) (UniProt Q02156); conditions: ATP 45 µM
[25] = molecular target: PRKCZ (human) (UniProt Q05513); conditions: ATP 15 µM
[26] = molecular target: PRKG1 (human) (UniProt Q13976); conditions: ATP 90 µM
[27] = molecular target: PTK6 (human) (UniProt Q13882); conditions: ATP 15 µM
[28] = molecular target: ROCK1 (human) (UniProt Q13464); conditions: ATP 70 µM
[29] = molecular target: RPS6KA6 KD1 KD2 (human) (UniProt Q9UK32); conditions: ATP 45 µM
[30] = molecular target: SGK3 (human) (UniProt Q96BR1); conditions: ATP 155 µM
[31] = molecular target: STK24 (human) (UniProt Q9Y6E0); conditions: ATP 15 µM
[32] = molecular target: TYRO3 (human) (UniProt Q06418); conditions: ATP 45 µM

PRKG1 (human), sequence (Q13976 whole entry, looked up): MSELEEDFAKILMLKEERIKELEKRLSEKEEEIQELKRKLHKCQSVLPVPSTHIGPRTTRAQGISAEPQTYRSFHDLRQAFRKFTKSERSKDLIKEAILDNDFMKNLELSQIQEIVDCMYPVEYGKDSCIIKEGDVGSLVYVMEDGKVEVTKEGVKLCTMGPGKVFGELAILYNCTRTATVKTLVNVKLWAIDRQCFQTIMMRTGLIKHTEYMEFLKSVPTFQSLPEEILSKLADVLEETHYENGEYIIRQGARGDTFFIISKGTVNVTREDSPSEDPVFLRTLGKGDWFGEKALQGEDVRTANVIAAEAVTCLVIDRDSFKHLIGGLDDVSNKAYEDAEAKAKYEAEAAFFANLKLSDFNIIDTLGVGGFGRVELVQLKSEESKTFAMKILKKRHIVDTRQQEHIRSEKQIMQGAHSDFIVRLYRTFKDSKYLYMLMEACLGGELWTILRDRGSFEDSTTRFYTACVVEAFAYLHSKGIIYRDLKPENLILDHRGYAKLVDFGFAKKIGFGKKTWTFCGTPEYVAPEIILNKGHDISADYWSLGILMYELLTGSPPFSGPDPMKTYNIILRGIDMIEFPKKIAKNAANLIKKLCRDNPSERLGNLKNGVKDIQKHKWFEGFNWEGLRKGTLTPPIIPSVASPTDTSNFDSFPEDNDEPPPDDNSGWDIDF
DYRK2 (human), sequence (Q92630 whole entry, looked up): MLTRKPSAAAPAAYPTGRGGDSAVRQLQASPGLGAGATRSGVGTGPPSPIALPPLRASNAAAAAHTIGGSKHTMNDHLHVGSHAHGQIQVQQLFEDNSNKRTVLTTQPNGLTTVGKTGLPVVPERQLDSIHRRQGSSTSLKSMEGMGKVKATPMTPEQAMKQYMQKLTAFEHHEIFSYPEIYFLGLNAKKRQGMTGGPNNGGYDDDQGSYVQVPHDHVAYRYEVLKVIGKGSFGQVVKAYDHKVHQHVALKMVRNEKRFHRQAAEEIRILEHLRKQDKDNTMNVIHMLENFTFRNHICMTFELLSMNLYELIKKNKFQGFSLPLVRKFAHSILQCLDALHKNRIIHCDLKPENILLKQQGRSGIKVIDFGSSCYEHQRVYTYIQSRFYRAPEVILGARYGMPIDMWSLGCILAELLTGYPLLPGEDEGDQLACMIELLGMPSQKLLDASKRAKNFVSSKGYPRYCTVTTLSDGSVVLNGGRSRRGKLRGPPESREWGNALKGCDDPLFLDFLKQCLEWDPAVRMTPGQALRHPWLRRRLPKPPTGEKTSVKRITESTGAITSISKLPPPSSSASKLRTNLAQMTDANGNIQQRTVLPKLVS
CAMK2B (human), sequence (Q13554 whole entry, looked up): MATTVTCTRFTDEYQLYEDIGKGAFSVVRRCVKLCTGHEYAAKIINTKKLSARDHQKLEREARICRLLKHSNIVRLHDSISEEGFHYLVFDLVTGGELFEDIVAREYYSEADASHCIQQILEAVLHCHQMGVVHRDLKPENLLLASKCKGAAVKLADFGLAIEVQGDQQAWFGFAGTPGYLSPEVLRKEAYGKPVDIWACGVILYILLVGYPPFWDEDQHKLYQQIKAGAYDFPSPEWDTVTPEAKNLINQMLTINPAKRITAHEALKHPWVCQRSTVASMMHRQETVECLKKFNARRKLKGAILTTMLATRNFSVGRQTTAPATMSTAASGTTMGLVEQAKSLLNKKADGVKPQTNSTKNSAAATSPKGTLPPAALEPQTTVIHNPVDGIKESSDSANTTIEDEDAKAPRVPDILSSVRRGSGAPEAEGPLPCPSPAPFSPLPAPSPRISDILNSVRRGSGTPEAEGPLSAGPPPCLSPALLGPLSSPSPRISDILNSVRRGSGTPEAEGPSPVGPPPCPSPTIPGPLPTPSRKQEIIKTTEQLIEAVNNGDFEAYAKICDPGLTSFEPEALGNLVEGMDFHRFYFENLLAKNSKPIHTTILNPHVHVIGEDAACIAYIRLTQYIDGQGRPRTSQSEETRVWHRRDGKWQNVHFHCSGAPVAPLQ
RPS6KA6 KD1 KD2 (human), sequence (Q9UK32 whole entry, looked up): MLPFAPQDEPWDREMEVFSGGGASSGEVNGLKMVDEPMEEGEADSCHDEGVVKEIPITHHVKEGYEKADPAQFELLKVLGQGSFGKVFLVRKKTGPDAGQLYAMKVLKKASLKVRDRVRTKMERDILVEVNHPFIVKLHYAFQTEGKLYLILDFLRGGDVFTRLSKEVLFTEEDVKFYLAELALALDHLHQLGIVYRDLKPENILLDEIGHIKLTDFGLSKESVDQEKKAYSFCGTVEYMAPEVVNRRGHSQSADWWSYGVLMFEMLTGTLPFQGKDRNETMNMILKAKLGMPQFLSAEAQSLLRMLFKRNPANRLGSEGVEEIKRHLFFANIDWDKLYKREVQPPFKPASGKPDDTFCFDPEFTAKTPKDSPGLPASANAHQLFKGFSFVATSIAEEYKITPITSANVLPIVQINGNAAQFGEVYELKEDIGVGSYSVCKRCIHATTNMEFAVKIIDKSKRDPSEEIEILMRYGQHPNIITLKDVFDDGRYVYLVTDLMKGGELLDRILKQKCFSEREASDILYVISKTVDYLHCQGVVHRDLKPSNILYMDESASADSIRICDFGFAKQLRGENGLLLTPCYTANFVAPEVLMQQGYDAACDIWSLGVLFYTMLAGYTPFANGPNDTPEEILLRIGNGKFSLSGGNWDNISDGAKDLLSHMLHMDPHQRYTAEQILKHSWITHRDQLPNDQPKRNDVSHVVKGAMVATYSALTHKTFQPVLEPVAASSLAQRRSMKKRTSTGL
EPHA1 (human), sequence (P21709 whole entry, looked up): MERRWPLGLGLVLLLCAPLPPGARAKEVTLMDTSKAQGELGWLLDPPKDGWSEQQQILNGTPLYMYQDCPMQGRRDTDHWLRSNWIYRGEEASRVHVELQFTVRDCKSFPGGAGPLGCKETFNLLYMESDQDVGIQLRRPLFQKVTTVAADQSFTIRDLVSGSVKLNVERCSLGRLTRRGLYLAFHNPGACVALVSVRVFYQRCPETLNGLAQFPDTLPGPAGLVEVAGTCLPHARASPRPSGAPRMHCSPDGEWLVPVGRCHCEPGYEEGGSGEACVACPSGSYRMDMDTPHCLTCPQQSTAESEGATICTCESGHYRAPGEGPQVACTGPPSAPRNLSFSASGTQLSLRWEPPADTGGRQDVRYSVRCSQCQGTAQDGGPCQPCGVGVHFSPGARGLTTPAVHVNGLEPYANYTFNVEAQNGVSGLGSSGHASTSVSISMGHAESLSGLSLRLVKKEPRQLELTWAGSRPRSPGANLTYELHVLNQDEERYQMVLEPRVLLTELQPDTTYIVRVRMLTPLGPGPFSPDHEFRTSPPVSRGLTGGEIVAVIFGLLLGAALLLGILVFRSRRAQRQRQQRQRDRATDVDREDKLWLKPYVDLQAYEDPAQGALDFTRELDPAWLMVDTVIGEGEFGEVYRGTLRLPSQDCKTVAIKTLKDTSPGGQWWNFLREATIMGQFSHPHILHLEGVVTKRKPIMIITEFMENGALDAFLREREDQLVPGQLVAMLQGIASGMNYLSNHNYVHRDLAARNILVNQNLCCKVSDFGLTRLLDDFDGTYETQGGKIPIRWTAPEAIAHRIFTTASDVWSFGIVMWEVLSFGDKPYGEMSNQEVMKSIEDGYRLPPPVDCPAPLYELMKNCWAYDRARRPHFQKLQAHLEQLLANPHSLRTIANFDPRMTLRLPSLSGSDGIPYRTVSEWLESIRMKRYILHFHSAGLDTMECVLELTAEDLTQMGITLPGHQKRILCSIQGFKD
EPHB1 (human), sequence (P54762 whole entry, looked up): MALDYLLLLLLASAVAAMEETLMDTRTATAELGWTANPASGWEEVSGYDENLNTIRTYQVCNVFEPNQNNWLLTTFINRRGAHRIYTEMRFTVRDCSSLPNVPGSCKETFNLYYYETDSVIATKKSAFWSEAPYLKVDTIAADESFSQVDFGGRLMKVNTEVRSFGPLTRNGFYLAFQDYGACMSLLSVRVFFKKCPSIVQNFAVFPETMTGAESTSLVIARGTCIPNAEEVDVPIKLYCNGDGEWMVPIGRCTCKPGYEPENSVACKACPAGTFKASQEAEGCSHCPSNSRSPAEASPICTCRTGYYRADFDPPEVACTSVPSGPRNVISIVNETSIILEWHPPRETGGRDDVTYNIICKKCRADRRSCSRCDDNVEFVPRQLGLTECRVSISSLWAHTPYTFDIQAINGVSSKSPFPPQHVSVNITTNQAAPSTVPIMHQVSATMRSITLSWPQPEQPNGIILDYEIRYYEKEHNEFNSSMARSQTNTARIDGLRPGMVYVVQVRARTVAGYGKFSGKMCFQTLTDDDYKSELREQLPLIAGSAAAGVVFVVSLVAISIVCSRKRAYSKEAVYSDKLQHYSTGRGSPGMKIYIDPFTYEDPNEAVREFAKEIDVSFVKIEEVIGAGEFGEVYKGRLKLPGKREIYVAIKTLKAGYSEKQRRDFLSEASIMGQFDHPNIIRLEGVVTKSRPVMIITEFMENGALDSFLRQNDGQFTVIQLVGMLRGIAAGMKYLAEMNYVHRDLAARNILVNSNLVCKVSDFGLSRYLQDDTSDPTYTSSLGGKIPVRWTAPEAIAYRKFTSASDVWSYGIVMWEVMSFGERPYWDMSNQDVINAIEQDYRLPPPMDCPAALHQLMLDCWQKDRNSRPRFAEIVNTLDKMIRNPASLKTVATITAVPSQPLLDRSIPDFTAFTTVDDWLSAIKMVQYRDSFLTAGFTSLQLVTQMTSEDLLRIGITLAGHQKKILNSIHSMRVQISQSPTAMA

O=C1Nc2ccccc2/C1=C1\Nc2ccccc2\C1=N/O
residual activity ([1]; compound 1.0 µM): 71% | residual activity ([1]; compound 10.0 µM): 56% | residual activity ([2]; compound 1.0 µM): 33% | residual activity ([2]; compound 10.0 µM): 11% | residual activity ([3]; compound 1.0 µM): 3% | residual activity ([3]; compound 10.0 µM): 2% | residual activity ([4]; compound 1.0 µM): 42% | residual activity ([4]; compound 10.0 µM): 16% | residual activity ([5]; compound 1.0 µM): 26% | residual activity ([5]; compound 10.0 µM): 11% | residual activity ([6]; compound 1.0 µM): 65% | residual activity ([6]; compound 10.0 µM): 30% | residual activity ([7]; compound 1.0 µM): 79% | residual activity ([7]; compound 10.0 µM): 54% | residual activity ([8]; compound 1.0 µM): 15% | residual activity ([8]; compound 10.0 µM): 8% | residual activity ([9]; compound 1.0 µM): 64% | residual activity ([9]; compound 10.0 µM): 20% | residual activity ([10]; compound 1.0 µM): 79% | residual activity ([10]; compound 10.0 µM): 20% | residual activity ([11]; compound 1.0 µM): 55% | residual activity ([11]; compound 10.0 µM): 61% | residual activity ([12]; compound 1.0 µM): 59% | residual activity ([12]; compound 10.0 µM): 9% | residual activity ([13]; compound 1.0 µM): 59% | residual activity ([13]; compound 10.0 µM): 13% | residual activity ([14]; compound 1.0 µM): 20% | residual activity ([14]; compound 10.0 µM): 2% | residual activity ([15]; compound 1.0 µM): 1% | residual activity ([15]; compound 10.0 µM): 0% | residual activity ([16]; compound 1.0 µM): 13% | residual activity ([16]; compound 10.0 µM): 6% | residual activity ([17]; compound 1.0 µM): 5% | residual activity ([17]; compound 10.0 µM): 0% | residual activity ([18]; compound 1.0 µM): 60% | residual activity ([18]; compound 10.0 µM): 11% | residual activity ([19]; compound 1.0 µM): 48% | residual activity ([19]; compound 10.0 µM): 14% | residual activity ([20]; compound 1.0 µM): 54% | residual activity ([20]; compound 10.0 µM): 10% | residual activity ([21]; compound 1.0 µM): 117% | residual activity ([21]; compound 10.0 µM): 89% | residual activity ([22]; compound 1.0 µM): 94% | residual activity ([22]; compound 10.0 µM): 90% | residual activity ([23]; compound 1.0 µM): 2% | residual activity ([23]; compound 10.0 µM): 0% | residual activity ([24]; compound 1.0 µM): 106% | residual activity ([24]; compound 10.0 µM): 91% | residual activity ([25]; compound 1.0 µM): 101% | residual activity ([25]; compound 10.0 µM): 98% | residual activity ([26]; compound 1.0 µM): 79% and 77% | residual activity ([26]; compound 10.0 µM): 45% and 67% | residual activity ([27]; compound 1.0 µM): 91% | residual activity ([27]; compound 10.0 µM): 23% | residual activity ([28]; compound 1.0 µM): 108% | residual activity ([28]; compound 10.0 µM): 92% | residual activity ([29]; compound 1.0 µM): 20% | residual activity ([29]; compound 10.0 µM): 12% | residual activity ([30]; compound 1.0 µM): 89% | residual activity ([30]; compound 10.0 µM): 56% | residual activity ([31]; compound 1.0 µM): 42% | residual activity ([31]; compound 10.0 µM): 10% | residual activity ([32]; compound 1.0 µM): 62% | residual activity ([32]; compound 10.0 µM): 15%
